This is an account of results in patent publication US20150057443A1, “Cycloalkyl Amine Compounds” (Prexa Pharmaceuticals, Inc., priority 2013, published 2015).

For assay [1], the target named is T1, human recombinant SERT (Homo sapiens, UniProt P31645).
T1 construct: membranes)
As to the kind of experiment: SERT radioligand binding assay (scintillation proximity, [3H]citalopram). The conditions noted are these: HEK293 cell membranes expressing human recombinant SERT; [3H]citalopram; SPA; read-out: SERT Ki. How it is done: (§1) Affinity of the compounds for monoamine transporters was determined by in vitro radioligand binding assays using cell membrane preparations derived from HEK293 cell lines stably expressing human recombinant DAT, NET or SERT receptor (Suven Life Sciences, Hyderabad, India).
(§2) Stable DAT cell lines were generated following procedures described in Eshelman et al., Molecular Pharmacology 45, 312-316; 1994. Stable NET cell lines were generated following procedures described in Pacholczyk et al., Nature 350, 350-354, 1991 and Galli et al., Journal Exp. Biol. 198, 2197-2212, 1995. Stable SERT cell lines were generated following procedures described in Ramamoorthy et al., Proc Natl Acad Sci USA 90, 2542-246, 1993.
(§3) Cell membranes were obtained from the above-referenced cell lines by manually homogenizing previously frozen cell pellets in Tris-HCl buffer and serially centrifugating and re-extracting the preparations according procedures described in Subbu et al., Journal Pharmacol ExpTher 327, 982-990, 2008.
(§4) A scintillation proximity assay was used to measure receptor binding. Homogenized membrane preparations (final protein concentration 8-15 ug/well) were pre-incubated with WGA PVT SPA beads (0.5 mg/well) for 5 minutes. Binding was initiated by adding high affinity ligands and test compounds (0.1 nM to 10 μM) or reference/positive control ligands to the membrane-bead complex. Plates were incubated for three hours and raw data counts recorded using a liquid scintillation counter (MicroBetaTriLux Counter, Perkin Elmer). Inhibition constants (Ki) were calculated using GraphPad Prism software (version 4.0).
SERT receptor binding was determined using procedures described in Owens et al., The Journal of Pharmacology and Experimental Therapeutics 283:1305-1322, 1997. A mixture of [3H]citalopram (N-methyl-[3H]citalopram, Perkin Elmer) and bead-membrane complex was added to wells containing test compound. Non-specific binding was determined using wells containing venlafaxine hydrochloride (100 uM, Sigma). Total radioligand was determined using assay buffer containing 1% DMSO in the presence of [3H]citalopram. SERT Ki values were calculated using GraphPad Prism software (version 4.0).
(In general: In a scintillation proximity assay essentially only radioactivity close to the scintillant gives light.)

Assay [2] deals with human recombinant DAT (Homo sapiens, UniProt Q01959). Put plainly: DAT radioligand binding assay (scintillation proximity, [3H]WIN-35428). How it is done:
as §1, §2, §3, §4
DAT receptor binding was determined using procedures described in Skolnick et al., European Journal of Pharmacology, 461(2-3):99-104, 2003; and Eshleman et al., The Journal of Pharmacology and Experimental Therapeutics 289:877-885, 1999. A mixture of [3H]WIN-35428 (N-methyl 3H-WIN-35428, Perkin Elmer) and bead-membrane complex was added to wells containing test compound. Wells containing nomifensine maleate ([…], Sigma) were used to define non-specific […] binding. Total radioligand was defined by assay buffer containing 1% DMSO in the presence of [3H]WIN-35428. DAT Ki values were calculated using GraphPad Prism software (version 4.0).

Assay [3] deals with T2, human recombinant NET (Homo sapiens, UniProt P23975).
T2 construct: membranes)
T2 sequence (P23975 whole entry): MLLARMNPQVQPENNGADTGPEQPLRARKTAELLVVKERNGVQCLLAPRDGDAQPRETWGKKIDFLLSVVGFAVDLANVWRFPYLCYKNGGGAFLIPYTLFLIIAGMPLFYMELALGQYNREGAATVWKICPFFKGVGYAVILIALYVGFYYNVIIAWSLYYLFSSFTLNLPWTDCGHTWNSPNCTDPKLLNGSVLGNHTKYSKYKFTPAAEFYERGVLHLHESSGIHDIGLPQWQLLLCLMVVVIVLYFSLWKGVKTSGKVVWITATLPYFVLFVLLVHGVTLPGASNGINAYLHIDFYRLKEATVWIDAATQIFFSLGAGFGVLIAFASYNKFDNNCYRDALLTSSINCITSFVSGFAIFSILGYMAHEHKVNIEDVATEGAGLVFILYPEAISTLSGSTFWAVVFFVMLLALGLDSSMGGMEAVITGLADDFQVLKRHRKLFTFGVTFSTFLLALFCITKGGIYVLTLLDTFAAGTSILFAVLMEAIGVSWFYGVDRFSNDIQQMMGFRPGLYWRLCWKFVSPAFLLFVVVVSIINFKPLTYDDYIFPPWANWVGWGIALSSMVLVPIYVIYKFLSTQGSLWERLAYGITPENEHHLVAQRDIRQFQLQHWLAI
Put plainly: NET radioligand binding assay (scintillation proximity, [3H]nisoxetine). Particulars: HEK293 cell membranes expressing human recombinant NET; [3H]nisoxetine; SPA; read-out: NET Ki. How it is done:
as §1, §2, §3, §4
NET receptor binding was determined using procedures described in Mason et al., The Journal of Pharmacology and Experimental Therapeutics 323:720-729, 2007; and Eshleman et al., The Journal of Pharmacology and Experimental Therapeutics289:877-885, 1999. A mixture of [3H]nisoxetine hydrochloride (N-methyl-[3H]nisoxetine, Perkin Elmer) and bead-membrane complex was added to wells containing test compound. Wells containing unlabeled nisoxetine (100 uM, Sigma) were used to define non-specific NET binding. Total radioligand was defined using assay buffer containing 1% DMSO in the presence of [3H]nisoxetine. NET Ki values were calculated using GraphPad Prism software (version 4.0).

Read-outs that look alike come from different tables or passages of the source. A value given as a limit tells only on which side of the number the result lay.

One may read the Ki as a measure of affinity in units of concentration, obtained from inhibition or displacement.

human recombinant DAT, sequence (Q01959 whole entry): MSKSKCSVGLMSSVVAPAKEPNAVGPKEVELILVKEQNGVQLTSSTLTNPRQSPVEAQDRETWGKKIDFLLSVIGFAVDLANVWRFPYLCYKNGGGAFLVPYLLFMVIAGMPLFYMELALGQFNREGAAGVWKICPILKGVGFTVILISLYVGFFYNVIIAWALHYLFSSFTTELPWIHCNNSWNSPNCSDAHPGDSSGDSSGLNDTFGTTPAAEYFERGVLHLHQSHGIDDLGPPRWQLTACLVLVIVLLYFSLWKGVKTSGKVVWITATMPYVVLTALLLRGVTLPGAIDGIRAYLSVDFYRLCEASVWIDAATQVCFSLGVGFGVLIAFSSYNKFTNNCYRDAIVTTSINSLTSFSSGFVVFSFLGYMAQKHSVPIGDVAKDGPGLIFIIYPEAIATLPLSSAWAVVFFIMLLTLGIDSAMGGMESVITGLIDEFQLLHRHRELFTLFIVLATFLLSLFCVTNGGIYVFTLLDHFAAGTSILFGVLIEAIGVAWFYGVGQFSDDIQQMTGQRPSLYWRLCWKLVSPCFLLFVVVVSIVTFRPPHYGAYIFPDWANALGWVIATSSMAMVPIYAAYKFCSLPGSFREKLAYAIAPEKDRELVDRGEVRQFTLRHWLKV
T1 sequence (P31645 whole entry): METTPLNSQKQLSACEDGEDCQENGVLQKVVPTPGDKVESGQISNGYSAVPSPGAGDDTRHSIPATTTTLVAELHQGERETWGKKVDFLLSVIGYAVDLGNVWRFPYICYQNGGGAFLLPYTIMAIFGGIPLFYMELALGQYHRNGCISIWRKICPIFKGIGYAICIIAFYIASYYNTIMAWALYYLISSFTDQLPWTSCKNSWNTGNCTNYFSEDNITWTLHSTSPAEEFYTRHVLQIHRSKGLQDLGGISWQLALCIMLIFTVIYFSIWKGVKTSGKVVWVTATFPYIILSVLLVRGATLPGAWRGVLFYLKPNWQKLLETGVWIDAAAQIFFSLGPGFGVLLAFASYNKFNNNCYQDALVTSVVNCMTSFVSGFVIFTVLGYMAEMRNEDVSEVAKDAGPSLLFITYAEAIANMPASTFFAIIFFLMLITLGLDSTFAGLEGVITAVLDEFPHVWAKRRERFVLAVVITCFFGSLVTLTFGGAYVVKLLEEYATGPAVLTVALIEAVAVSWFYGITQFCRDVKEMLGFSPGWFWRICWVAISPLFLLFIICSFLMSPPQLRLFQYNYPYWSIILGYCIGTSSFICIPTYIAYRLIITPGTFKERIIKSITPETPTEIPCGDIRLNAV

For the molecule “1-{2-[1-(3-Chlorophenyl)cyclobutyl]-2-hydroxyethyl}-3,3-dimethylpiperidin-1-ium chloride [Compound 11]”, the inhibition constant (Ki) was above 500 nM in assay [1]; above 500 nM in assay [2] (HEK293 cell membranes expressing human recombinant DAT, [3H]WIN-35428, SPA, read-out: DAT Ki); above 500 nM in assay [3].

Turning to `Clc1ccc(C2(CN3CCCCC3)CCC2)cc1` [Compound 1], the Ki is above 500 nM in assay [1], 101 to 500 nM in assay [2] and above 500 nM in assay [3].

With `Clc1cccc(C2(CN3CCCCC3)CCC2)c1` [Compound 2], the Ki in assay [1], in assay [2] and in assay [3] was above 500 nM throughout.

Turning to `Clc1ccc(C2(CN3CCCCC3)CCC2)cc1Cl` [Compound 3], the Ki in assay [1] is 101 to 500 nM; in assay [2] it was 11 to 100 nM; in assay [3], 11 to 100 nM.

`c1ccc(C2(CN3CCCCC3)CCC2)cc1` [Compound 4, 1-[(1-phenylcyclobutyl)methyl]piperidin-1-ium chloride]: the inhibition constant (Ki) in assay [1], in assay [2] and in assay [3] was above 500 nM throughout.

For the molecule `OC(CN1CCCCC1)C1(c2ccccc2)CCC1` (stereo not drawn) [Compound 5, 1-[2-hydroxy-2-(1-phenylcyclobutyl)ethyl]piperidin-1-ium chloride], the Ki in assay [1], in assay [2] and in assay [3] was above 500 nM each time.

As for `OC(CN1CCCCC1)C1(c2ccc(Cl)cc2)CCC1` (stereo not drawn) [Compound 6, 1-{2-[1-(4-Chlorophenyl)cyclobutyl]-2-hydroxyethyl}piperidin-1-ium chloride], the Ki in assay [1], in assay [2] and in assay [3] was above 500 nM in each case.

In the case of `OC(CN1CCCCC1)C1(c2ccc(Cl)c(Cl)c2)CCC1` (stereo not drawn) [Compound 7, 1-{2-[1-(3,4-Dichlorophenyl)cyclobutyl]-2-hydroxyethyl}piperidin-1-ium chloride], the inhibition constant (Ki) is above 500 nM in assay [1], 11 to 100 nM in assay [2] and 101 to 500 nM in assay [3].

Take `OC(CN1CCCCC1)C1(c2cccc(Cl)c2)CCC1` (stereo not drawn) [Compound 12, 1-{2-[1-(3-Chlorophenyl)cyclobutyl]-2-hydroxyethyl}piperidin-1-ium chloride]: the Ki in assay [1], in assay [2] and in assay [3] was above 500 nM in each case.

On to `O[C@H](CN1CCCCC1)C1(c2ccc(Cl)c(Cl)c2)CCC1` [Compound 13, 1-[(2S)-2-[1-(3,4-dichlorophenyl)cyclobutyl]-2-hydroxyethyl]piperidin-1-ium chloride], for which the results for the inhibitory constant (Ki) in assay [1], in assay [2] and in assay [3] were above 500 nM, 11 to 100 nM and 11 to 100 nM, respectively.

Consider `O[C@@H](CN1CCCCC1)C1(c2ccc(Cl)c(Cl)c2)CCC1` [Compound 14, 1-[(2R)-2-[1-(3,4-dichlorophenyl)cyclobutyl]-2-hydroxyethyl]piperidin-1-ium chloride], for which the values for the inhibition constant (Ki) in assay [1], in assay [2] and in assay [3] were above 500 nM, 11 to 100 nM and 101 to 500 nM, respectively.

For `OC(CN1CCCCC1)C1(c2ccc3ccccc3c2)CCC1` (stereo not drawn) [Compound 15, 1-{2-hydroxy-2-[1-(naphthalen-2-yl)cyclobutyl]ethyl}piperidin-1-ium chloride], the Ki in assay [1] was in the range of 101 to 500 nM; in assay [2] it was 11 to 100 nM; in assay [3], 11 to 100 nM.

`OC(CN1CCCCCC1)C1(c2ccc(Cl)c(Cl)c2)CCC1` (stereo not drawn) [Compound 16, 1-{2-[1-(3,4-Dichlorophenyl)cyclobutyl]-2-hydroxyethyl}azepan-1-ium chloride]: the inhibition constant (Ki) in assay [1] is above 500 nM; in assay [2], 11 to 100 nM; in assay [3] it was 101 to 500 nM.

Turning to `OC(CN1CCCC1)C1(c2ccc(Cl)c(Cl)c2)CCC1` (stereo not drawn) [Compound 17, 1-{2-[1-(3,4-Dichlorophenyl)cyclobutyl]-2-hydroxyethyl}pyrrolidin-1-ium chloride], the Ki in assay [1] is above 500 nM; in assay [2], 11 to 100 nM; in assay [3] it was 101 to 500 nM.

For the molecule `CCN(CC)CC(O)C1(c2ccc(Cl)c(Cl)c2)CCC1` (stereo not drawn) [Compound 18, {2-[1-(3,4-Dichlorophenyl)cyclobutyl]-2-hydroxyethyl}diethylazanium chloride], the figures for the inhibition constant Ki in assay [1], in assay [2] and in assay [3] were above 500 nM, 11 to 100 nM and 11 to 100 nM, respectively.

As to `CC(C)NCC(O)C1(c2ccc(Cl)c(Cl)c2)CCC1` (stereo not drawn) [Compound 19, {2-[1-(3,4-dichlorophenyl)cyclobutyl]-2-hydroxyethyl}(propan-2-yl)azanium chloride], the Ki in assay [1] was 101 to 500 nM; in assay [2] it was 11 to 100 nM; in assay [3], 11 to 100 nM.

As for `CC(C)(C)NCC(O)C1(c2ccc(Cl)c(Cl)c2)CCC1` (stereo not drawn) [Compound 20, tert-butyl({2-[1-(3,4-dichlorophenyl)cyclobutyl]-2-hydroxyethyl})azanium chloride], the Ki in assay [1] is 101 to 500 nM; in assay [2], 11 to 100 nM; in assay [3] it was 11 to 100 nM.

Take `OC(CN1CCCC(F)C1)C1(c2ccc(Cl)c(Cl)c2)CCC1` (stereo not drawn) [Compound 21, 1-{2-[1-(3,4-Dichlorophenyl)cyclobutyl]-2-hydroxyethyl}-3-fluoropiperidin-1-ium chloride]: the inhibition constant (Ki) in assay [1] is above 500 nM; in assay [2], below 10 nM; in assay [3] it was 11 to 100 nM.

For the molecule `OC(CN1CCCC(F)(F)C1)C1(c2ccc(Cl)c(Cl)c2)CCC1` (stereo not drawn) [Compound 22, 1-{2-[1-(3,4-Dichlorophenyl)cyclobutyl]-2-hydroxyethyl}-3,3-difluoropiperidin-1-ium chloride], the results for the Ki in assay [1], in assay [2] and in assay [3] were above 500 nM, below 10 nM and 101 to 500 nM, respectively.

Take `OC(CN1CCC(F)CC1)C1(c2ccc(Cl)c(Cl)c2)CCC1` (stereo not drawn) [Compound 23, 1-{2-[1-(3,4-Dichlorophenyl)cyclobutyl]-2-hydroxyethyl}-4-fluoropiperidin-1-ium chloride]: the Ki in assay [1] was above 500 nM; in assay [2] it was below 10 nM; in assay [3] it was 101 to 500 nM.

Regarding `OC(CN1CCC(F)(F)CC1)C1(c2ccc(Cl)c(Cl)c2)CCC1` (stereo not drawn) [Compound 24, 1-{2-[1-(3,4-Dichlorophenyl)cyclobutyl]-2-hydroxyethyl}-4,4-difluoropiperidin-1-ium chloride], the inhibitory constant (Ki) was 101 to 500 nM in assay [1], below 10 nM in assay [2] and above 500 nM in assay [3].

On to `OC(CN1CC2CCC1C2)C1(c2ccc(Cl)c(Cl)c2)CCC1` (stereo not drawn) [Compound 25, 2-{2-[1-(3,4-Dichlorophenyl)cyclobutyl]-2-hydroxyethyl}-2-azabicyclo[2.2.1]heptan-2-ium chloride], for which the figures for the Ki in assay [1], in assay [2] and in assay [3] were 101 to 500 nM, 11 to 100 nM and 11 to 100 nM, respectively.

On to `OC(CN1CC2CC1CO2)C1(c2ccc(Cl)c(Cl)c2)CCC1` (stereo not drawn) [Compound 27, 5-{2-[1-(3,4-Dichlorophenyl)cyclobutyl]-2-hydroxyethyl}-2-oxa-5-azabicyclo[2.2.1]heptan-5-ium chloride], for which the figures for the Ki in assay [1], in assay [2] and in assay [3] were above 500 nM, 11 to 100 nM and 101 to 500 nM, respectively.

For `CC(CF)NCC(O)C1(c2ccc(Cl)c(Cl)c2)CCC1` (stereo not drawn) [Compound 29, {2-[1-(3,4-dichlorophenyl)cyclobutyl]-2-hydroxyethyl}(1-fluoropropan-2-yl)azanium chloride], the figures for the Ki in assay [1], in assay [2] and in assay [3] were above 500 nM, 11 to 100 nM and 101 to 500 nM, respectively.

`OC(CN1CCOCC1)C1(c2ccc(Cl)c(Cl)c2)CCC1` (stereo not drawn) [Compound 30, 4-{2-[1-(3,4-Dichlorophenyl)cyclobutyl]-2-hydroxyethyl}morpholin-4-ium chloride]: the Ki was above 500 nM in assay [1], 11 to 100 nM in assay [2] and above 500 nM in assay [3].
